{"source": "ChEMBL document CHEMBL1146922", "about": "“A novel ketone derivative of artemisinin biotransformed by Streptomyces griseus ATCC 13273” (Bioorg Med Chem Lett, 2006)", "test_system": "Plasmodium falciparum", "assay": "Antimicrobial activity against Plasmodium falciparum FCC1/HN", "type": "functional, organism-based", "key": {"[1]": {"details": "Plasmodium falciparum, FCC1/HN, read-out: IC50; call rule not given here"}}}
{"smiles": "C[C@@H]1[C@@H](O)C[C@H]2[C@@H](C)C(=O)O[C@@H]3O[C@]4(C)CC[C@@H]1C32OO4", "values": [{"measurement": "IC50", "setting": "[1]", "result": 0.0293, "unit": "µg/mL"}]}
{"smiles": "C[C@@H]1[C@H](O)C[C@H]2[C@@H](C)C(=O)O[C@@H]3O[C@]4(C)CC[C@@H]1C32OO4", "values": [{"measurement": "IC50", "setting": "[1]", "result": 0.0346, "unit": "µg/mL"}]}
{"smiles": "C[C@@H]1C(=O)C[C@H]2[C@@H](C)C(=O)O[C@@H]3O[C@]4(C)CC[C@@H]1C32OO4", "values": [{"measurement": "IC50", "setting": "[1]", "result": 0.0257, "unit": "µg/mL"}]}
{"smiles": "C[C@@H]1CC[C@H]2[C@@H](C)C(=O)O[C@@H]3O[C@@]4(C)OC32[C@H]1C[C@H]4O", "values": [{"measurement": "IC50", "result": "Not Active"}]}
{"smiles": "C[C@@H]1CC[C@H]2[C@@H](C)C(=O)O[C@@H]3O[C@@]4(C)CC[C@@H]1[C@]32OO4", "note": "[ARTEMISININ]", "values": [{"measurement": "IC50", "setting": "[1]", "result": 0.0031, "unit": "µg/mL"}]}
